According to patent publication US20120202751A1, “METHODS OF MONITORING ENDOPLASMIC RETICULUM (ER) STRESS RESPONSE” (The Board of trustees of the Leland Stanford Junior …, priority 2009, published 2012):

Assays:
XBP1-Luc construct = assay: XBP1-luc reporter luciferase activity in HT1080 cells; type: cell-based, human; conditions: for UPR reporter activity, XBP1-luc construct: HT1080 cells, luciferase activity measured after 24 hours
Procedure: (§1) FIG. 1 (A) Upper Panel: is a schematic representation of the XBP1-luc reporter construct. Lower panel: is a bar graph of in vitro luciferase activity from different reporter constructs in response to different stresses. HT 1080 cells expressing either a XBP1-luc construct, or an ATF4 or CMV-driven luciferase gene were cultured in 10 μg/ml tunicamycin, glucose depletion, or severe hypoxia (<0.02% O2) for 24 hours to induce ER stress. (B) is a graphical representation of the incidence of breast carcinomas in Tag mice and Tag-Luc double transgenic mice. […] Tumor areas are outlined. Lower panel: are overlays of in vivo bioluminescence on the pictures in the middle panel. (D) is a series of fluorescent micrographs of tissue sections from tumors from Tag-Luc and Tag mice. Frozen sections were stained with antiluciferase and anti-XBP1 (top left two panels), anti-luciferase and anti-BiP (bottom left two panels), anti-luciferase and anti-eIF2α (top right two panels), or the control secondary antibodies (bottom right two panels).
(B) is a bar graph of in vitro XBP1-luc activity in preparations of spontaneous primary tumors from Tag and Tag-Luc mice cultured under normoxic or hypoxic conditions for 48 h. (C) Left panel: are photographs with overlays of in vivo bioluminescence in Tag-Luc mice treated with vehicle or 50 mg/kg DCA (dichloroacetic acid) b.i.d. for 2 days. Bioluminescence was measured after 32 hours. Right panel: is a bar graph of in vivo bioluminescence as shown in the left panel of FIG. 5C and is the average of two experiments. […] Luciferase activity was measured after 24 hours.
The first 208 amino acids of the unspliced human XBP1-1 was amplified by PCR and subcloned into pEGFP-N1 (Clontech, Mountain View, Calif.). This plasmid was subsequently digested with Bam HI and Not Ito remove the EGFP and a PCR-generated firefly luciferase gene was cloned downstream of the XBP1-1 gene such that the luciferase gene was in frame only in the “spliced” reading frame. […]

ATF4-Luc = assay: ATF4-luc UPR reporter luciferase activity in HT1080 cells; type: cell-based, human; conditions: for UPR reporter activity, ATF4-luc construct: luciferase activity measured after 24 hours
Procedure: as §1
(B) is a bar graph of in vitro XBP1-luc activity in preparations of spontaneous primary tumors from Tag and Tag-Luc mice cultured under normoxic or hypoxic conditions for 48 h. (C) Left panel: are photographs with overlays of in vivo bioluminescence in Tag-Luc mice treated with vehicle or 50 mg/kg DCA (dichloroacetic acid) b.i.d. for 2 days. Bioluminescence was measured after 32 hours. Right panel: is a bar graph of in vivo bioluminescence as shown in the left panel of FIG. 5C and is the average of two experiments. (D) is a bar graph of in vitro luciferase activity in HT1080 cells containing CMV, XBP1, or ATF4-luciferase reporters after treatment with 2-DG, DCA, or glucose deprivation. Luciferase activity was measured after 24 hours.
This reporter construct was tested in vitro. The human fibrosarcoma cell line HT1080 was obtained from ATCC (Manassas, Va.). Cells were maintained at 37° C. with 5% CO2 in DMEM supplemented with 10% FBS and 1% penicillin-streptomycin antibiotics. HT1080 cells (FIG. 1A, lower panel) were stably transfected with the XBP1-Luc construct. […]

XBP1-luc activity [1] = assay: In vivo bioluminescence of primary tumors in Tag-Luc mice
Procedure: Mice were injected with fluorescently-labeled 2-DG or RGD peptide or dye alone and imaged 24 hours later for in vivo bioluminescence and 2-DG, RGD peptide, and dye uptake. Dark arrows indicate tumors with high in vivo bioluminescence and light arrows indicate tumors with low in vivo bioluminescence. (B) is a plot of 2-DG signal against in vivo bioluminescence for the mice imaged in FIG. 4(A). (C) is a bar graph of in vivo bioluminescence in autochthonous tumors after 24 hours of glucose deprivation. (D) Left panel: are photographs with overlays of in vivo bioluminescence of Tag-Luc mice at 0 and 12 hours after treatment with 2 mg of 2-DG or vehicle i.p. Arrows indicate palpable tumors. […]
(B) is a bar graph of in vitro XBP1-luc activity in preparations of spontaneous primary tumors from Tag and Tag-Luc mice cultured under normoxic or hypoxic conditions for 48 h. […] Bioluminescence was measured after 32 hours. […] Luciferase activity was measured after 24 hours.
In vivo bioluminescence, which corresponds to XBP1-Luc activity, was detected noninvasively using the IVIS imaging system (Caliper LifeSciences, Hopkinton, Mass.). […] Image analysis and quantification was performed using Living Image software (Caliper LifeSciences, Hopkinton, Mass.). All images were analyzed with a binning of 10. […]

XBP1-luc activity [2] = assay: In vitro luciferase activity of cultured Hi and Lo primary tumors from Tag-Luc mice; type: cell-based; conditions: primary Tag-Luc tumors after 7-10 days of in vitro culture
Procedure: FIG. 3 (A) is a bar graph of in vitro luciferase activity of primary tumors from Tag-Luc mice with “Hi” or “Lo” in vivo bioluminesence or tumors from Tag mice after 7-10 days of in vitro culture. Luciferase activity was also measured following tunicamycin treatment. (B) Left panels: are photographs of Tag-Luc mice bearing tumors with synchronous Hi (dark outline in the upper panel) and Lo (light outlines) in vivo bioluminescence (overlays, lower panel). Right panels: are photographs, including bioluminescent overlay, of transplanted Hi (dark circle/arrow; upper left flank) and Lo (light circles/arrows) primary tumors from Tag-Luc mice 14 days after subcutaneously transplantation into four separate quadrants on the dorsal surface of syngeneic FVB mice. (C) is a bar graph of in vivo bioluminesence of primary and transplanted Hi and Lo tumors. Results are the average of four independent experiments.
Tumors isolated ex vivo from Tag-Luc transgenic mice had 14.5-fold greater luciferase activity than tumors isolated from control Tag transgenic mice (FIG. 2A, middle panel; p=0.0001; n=16 for Tag mice, n=33 for Tag-Luc mice). […] Luciferase activity was detected on a Monolight 2010 (Analytic Luminescence Laboratory, San Diego, Calif.).

Compound: O=C(O)C(Cl)Cl [DCA, dichloroacetic acid]
- UPR reporter activity, XBP1-luc construct (XBP1-Luc construct): did not induce UPR reporter activity
- UPR reporter activity, ATF4-luc construct (ATF4-Luc): did not induce UPR reporter activity
- increase in bioluminescent signal of primary Tag-Luc tumors (XBP1-luc activity [1]; repeated injections, 50 mg/kg b.i.d. for 2 days, measured after 32 hours): 2.0 fold

Compound: tunicamycin
- luciferase activity, XBP1-Luc cells (XBP1-Luc construct; HT1080 cells stably transfected with XBP1-Luc, 10 μg/ml tunicamycin, 24 hours, compared to CMV-Luc control cells): strongly induced luciferase activity
- ATF4-Luc reporter induction (ATF4-Luc; 10 μg/ml tunicamycin, 24 hours): also induced
- XBP1-luc activity in Hi and Lo tumors (XBP1-luc activity [2]): increased

Compound: O=CC[C@@H](O)[C@H](O)[C@H](O)CO [Compound 2-DG, 2-deoxy-d-glucose]
- UPR reporter activity, XBP1-luc construct (XBP1-Luc construct): did induce UPR reporter activity
- UPR reporter activity, ATF4-luc construct (ATF4-Luc): did induce UPR reporter activity
- increase in tumor bioluminescence compared to control mice (XBP1-luc activity [1]; Tag-Luc mice, 2 mg 2-DG i.p., 12 hours, p=0.01): 1.78 fold
